This note sets out measurements from US6455577B2, “Flavanone derivatives and composition for preventing or treating blood lipid level-related diseases comprising same” (Korea Research Institute of Bioscience and Biotechnology, priority 2000, dated 2002).

In test [1] the test system is New Zealand White rabbits. In words: Fatty streak in the main artery of cholesterol-fed rabbits. Format: in vivo, rabbit. As to the method: 22 three-month-old New Zealand White rabbits(Yeonam Horticulture and Animal Husbandry College, Korea) each weighing about 2.0 to 2.3 kg were bred under a condition of temperature 20±2° C., relative humidity 55±10%, and photoperiod 12L/12D. The rabbits were divided two groups of 6 rabbits and a group of 10 rabbits, and the rats of three groups were fed with three different diets, i.e., RC4 diet(Oriental Yeast Co., Japan) containing 1% cholesterol(Control group); 1% cholesterol plus 1 mg/kg Lovastatin® (Merck, U.S.A.)(Comparative group); and 1% cholesterol plus 0.1% NG5006, respectively. RC4 diet comprises 7.6% moisture, 22.8% crude protein, 2.8% crude fat, 8.8% crude ash, 14.4% crude cellulose and 43.6% soluble nitrogen-free substances. The rabbits were bred for 8 weeks while being allowed free access to the diets and water.
The rabbits bred in Step 1 were sacrificed and their chest were incised. The main artery was cut out therefrom in a length of about 5 cm downward from the site 1 cm above the aortic valve and the fat surrounding the main artery was removed. The main artery was incised in the middle along the longitudinal axis and fixed in 10% neutral buffered formalin for 24 hours, and then, pinned to a dish. The moist artery was photographed and, then, staining of fatty streak was carried out in accordance with the method of Esper, E., et al. (J. Lab. Clin. Med., 121, 103-110(1993)) as follows.
A part of the incised main artery was washed three times by 2 min. with anhydrous propylene glycol and stained for 30 min. with a saturated solution of Oil Red O(ORO, Sigma Co.) dissolved in propylene glycol. Thereafter, the artery was washed twice by 3 min. with 85% propylene glycol to remove remaining staining solution and, then washed with physical saline. The artery was photographed and the photograph was traced. The area of stained legion(fatty streak legion) was determined with an image analyzer(LEICA, Q-600, Germany) and its proportion(%) to the total arterial area was calculated. The result is shown in Table V. The results were tested by student t-test by using Microsoft excel(version 7.0) program.

For another test, the target named is T1, HMG-CoA reductase (Rattus norvegicus, UniProt P51639).
T1 construct: microsomes were separated from liver tissues to be used as an enzyme source; from tissue; host or cells: liver microsomes of fed rats
T1 sequence (P51639 1-887): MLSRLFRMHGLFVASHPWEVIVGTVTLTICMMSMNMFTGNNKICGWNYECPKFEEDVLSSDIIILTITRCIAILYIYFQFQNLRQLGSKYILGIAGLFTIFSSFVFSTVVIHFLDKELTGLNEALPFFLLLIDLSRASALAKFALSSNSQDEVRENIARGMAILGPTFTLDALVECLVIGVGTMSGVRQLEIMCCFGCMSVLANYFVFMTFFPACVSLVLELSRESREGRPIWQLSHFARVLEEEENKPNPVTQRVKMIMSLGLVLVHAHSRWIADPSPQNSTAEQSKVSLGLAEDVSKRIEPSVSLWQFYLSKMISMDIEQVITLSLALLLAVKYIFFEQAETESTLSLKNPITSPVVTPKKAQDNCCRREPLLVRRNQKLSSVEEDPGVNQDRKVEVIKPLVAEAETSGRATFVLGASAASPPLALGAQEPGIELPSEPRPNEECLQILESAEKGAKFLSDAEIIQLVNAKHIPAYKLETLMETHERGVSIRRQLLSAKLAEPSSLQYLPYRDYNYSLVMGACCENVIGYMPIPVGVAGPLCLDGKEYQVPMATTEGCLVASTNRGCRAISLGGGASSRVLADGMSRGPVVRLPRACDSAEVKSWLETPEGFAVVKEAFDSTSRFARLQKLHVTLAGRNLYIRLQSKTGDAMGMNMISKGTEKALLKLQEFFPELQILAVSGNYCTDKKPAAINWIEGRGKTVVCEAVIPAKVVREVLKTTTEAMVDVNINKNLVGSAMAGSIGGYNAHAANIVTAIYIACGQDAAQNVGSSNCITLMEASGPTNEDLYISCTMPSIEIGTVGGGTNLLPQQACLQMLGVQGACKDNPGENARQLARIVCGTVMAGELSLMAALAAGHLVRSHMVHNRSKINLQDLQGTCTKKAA
The test can be described thus: HMG-CoA reductase activity in liver microsomes of fed rats. Format: in vivo. Here is the method: To determine the effect of feeding NG5006 to rats on the activities of ACAT and HMG-CoA reductase, microsomes were separated from liver tissues to be used as an enzyme source.
1 g each of the livers taken from each group of rats of Example 12 was homogenized in 5 ml of homogenization medium(0. 1 M KH2PO4, pH 7.4, 0.1 mM EDTA and 10 mM β-mercaptoethanol). The homogenate was centrifuged at 3,000×g for 10 min. at 4° C. and the supernatant thus obtained was centrifuged at 15,000×g for 15 min. at 4° C. to obtain a supernatant. The supernatant was put into an ultracentrifuge tube(Beckman) and centrifuged at 100,000×g for 1 hour at 4° C. to obtain microsomal pellets, which were then suspended in 3 ml of the homogenization medium and centrifuged at 100,000×g for 1 hour at 4° C. The pellets thus obtained were suspended in 1 ml of the homogenization medium. The protein concentration of the resulting suspension was determined by Lowry's method and then adjusted to 4 to 8 mg/ml. The resulting suspension was stored in a deep freezer(Biofreezer, Forma Scientific Inc.).
The activity of HMG-CoA reductase was determined by employing [^14C]HMG-CoA, in accordance with the method of Shapiro et al.(Biochemica et Biophysica Acta, 370, 369-377(1974)) as follows.
The enzyme in the supernatant containing the microsome obtained in (Step 1) was activated at 37° C. for 30 min. Added to a reaction tube were 20 μl of HMG-CoA reductase assay buffer(0.25M KH2PO4(pH 7.0), 8.75 mM EDTA, 25 mM DTT, 0.45 M KCl and 0.25 mg/ml BSA), 5 μl of 50 mM NADPH, 5 μl of [^14C]HMG-CoA(0.05μ Ci/tube, final conc. 120μM), and 10 μl of activated microsomal enzyme(0.03-0.04 mg), and the mixture was incubated at 37° C. for 30 min. […] A region having a Rf value ranging from 0.65 to 0.75 was removed by scraping with a disposable cover slips and assayed for radioactivity with 1450 Microbeta liquid scintillation counter(Wallac Co., Finland). Enzyme activities were calculated as picomoles mevalonic acid synthesized per min. per mg protein(pmoles/min/mg protein).
In general terms: Liver microsomes are vesicles of endoplasmic reticulum, rich in cytochrome P450 enzymes.

On to `CCCCCCCCCCCCCCCCOc1cc(O)c2c(c1)OC(c1ccc(O)cc1)CC2=O` (centres unmarked) [NG5006, Naringenin 7-O-cetyl Ether], for which, in test [1] (1% cholesterol plus 1 mg/kg Lovastatin or 0.1% NG5006), the “layer on the arterial endothelium (FIGS. 1B, 1C)” value is “no or very thin layers of macrophage-lipid complex”. The “formation of fatty streak compared to the control group, in words” value in test [1] (1% cholesterol plus 1 mg/kg Lovastatin or 0.1% NG5006, 8 weeks) is “significantly inhibit the formation of fatty streak”. Besides, in test [1] (1% cholesterol plus 1 mg/kg Lovastatin or 0.1% NG5006, 8 weeks, Oil Red O staining), the “Fatty Streak lesion (proportion of total arterial area)” value was found to be 12.3 ± 6.2%. The “HMG-CoA activity lower than that of the control group” value at HMG-CoA reductase (NG5006-fed rat group) stood at 27.5%. For the same compound, the HMG-CoA reductase activity at HMG-CoA reductase (liver microsomes of rats fed 1% cholesterol plus 0.02% naringenin or 0.036% NG5006, six weeks) is 81.6 ± 6.0 pmole/min/mg protein.
